Legend:
[1] = system: hApoA-1 mRNA; assay: Up-regulation of hApoA-1 mRNA transcription in Huh7 cells; format: cell-based; details: Homo sapiens, Huh-7, EC170 of hApoA-1 mRNA up-regulation, 48 h, read-out: ApoA-1 activity
Experimental: Huh7 cells (2.5×10^5 per well) were plated in a 96-well plate using 100 μL DMEM per well, (Gibco DMEM supplemented with penicillin/streptomycin and 10% FBS), 72 h before the addition of the compound. The cells are treated with increasing concentrations of the compound or DMSO (0.1%), and incubated at 37° C., 5% CO2 for 48 h. Spent media was removed from the Huh-7 cells and placed on ice for immediate use with the “LDH cytotoxicity assay Kit II” from Abcam. The cells remaining in the plate were rinsed with 100 μL PBS. Cells were harvested using the mRNA Catcher PLUS kit according to manufacturer's instructions. The eluted mRNA was then used in a one-step quantitative real-time PCR reaction, using components of the RNA UltraSense™ One-Step Kit (Life Technologies) together with Applied Biosystems TaqMan® primer-probes for hApoA-1 and Cyclophilin. Real-time PCR plates were run on a ViiA™7 real time PCR machine (Applied Biosystems), data was analyzed, normalizing the Ct values for hApoA-1 to an internal control, prior to determining the fold induction of each unknown sample, relative to the control.

[2] = system: hIL-6 mRNA; assay: Inhibition of hIL-6 mRNA transcription in LPS-stimulated U937 macrophages; format: cell-based, Human; details: Homo sapiens, U-937, PMA-differentiated U937 cells, 1 h pretreatment, LPS 3 h, read-out: IL-6 activity
How it was run: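 PMA-differentiated U937 macrophages (60 ng/mL PMA, 3 days) pretreated 1 h with compound in 0.1% DMSO, then stimulated with 1 ug/mL E. coli LPS for 3 h at 37° C. IL-6 mRNA quantified by one-step TaqMan qRT-PCR, normalized to cyclophilin; fold expression relative to control, triplicate wells.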

[3] = system: MM1.s cells; assay: In vivo efficacy in multiple myeloma xenograft model using MM1.s cells; design: species or system mouse; details: mice, oral 25 to 90 mg/kg
Experimental: MM1.s cells (ATCC) were grown under standard cell culture conditions and SCID-Beige strain of female mice age 6-7 weeks were injected with 10×10^6 cells/animal in 100 μL PBS+100 μL Matrigel in the lower left abdominal flank. By approximately day 21 after MM1.s cells injection, mice were randomized based on tumor volume (L×W×H)/2) of average 120 mm^3. Mice were dosed orally with compound at 25 to 90 mg/kg b.i.d and or q.d in EA006 formulation at 10 mL/kg body weight dose volume. Tumor measurements were taken with electronic micro calipers and body weights measured on alternate days beginning from dosing period. The average tumor volumes, percent Tumor Growth Inhibition (TGI) and % change in body weights were compared relative to Vehicle control animals. The means, statistical analysis and the comparison between groups were calculated using Student's t-test in Excel.

[4] = In vivo efficacy in rat collagen-induced arthritis; details: female Lewis rats, dosed Day 11 to Day 17
Experimental: Rat collagen-induced arthritis is an experimental model of polyarthritis that has been widely used for preclinical testing of numerous anti-arthritic agents. Following administration of collagen, this model establishes a measurable polyarticular inflammation, marked cartilage destruction in association with pannus formation and mild to moderate bone resorption and periosteal bone proliferation. In this model, collagen was administered to female Lewis strain of rats on Day 1 and 7 of study and dosed with compounds from Day 11 to Day 17. Test compounds were administered at 25 mg/kg to 120 mg/kg b.i.d and 7.5 mg/kg to 30 mg/kg q.d dose to assess the potential to inhibit the inflammation (including paw swelling), cartilage destruction and bone resorption in arthritic rats, using a model in which the treatment is administered after the disease has been established.

[5] = In vivo efficacy in experimental autoimmune encephalomyelitis (EAE) model of MS; design: species or system mouse; details: female C57Bl/6 mice, 50 to 125 mg/kg b.i.d.
Text: Experimental autoimmune encephalomyelitis (EAE) is a T-cell-mediated autoimmune disease of the CNS which shares many clinical and histopathological features with human multiple sclerosis (MS). EAE is the most commonly used animal model of MS. […] Cytokines IL-23, IL-6 and IL-17, which are either critical for Th1 and Th17 differentiation or produced by these T cells, play a critical and non-redundant role in EAE development. Therefore, drugs targeting production of these cytokines are likely to have therapeutic potential in treatment of MS.
Compounds of Formula I were administered at 50 to 125 mg/kg b.i.d. from time of immunization to EAE mice to assess anti-inflammatory activity. In this model, EAE is induced by MOG35-55/CFA immunization and pertussis toxin injection in female C57Bl/6 mice.

[6] = system: TH1, Th2 and Th17 cytokines; assay: Ex vivo effects on T cell function from splenocyte and lymphocyte cultures stimulated with external MOG; format: in vivo, mouse; details: MOG stimulation 72 hours, mice treated 11 days b.i.d
Experimental: Mice were immunized with MOG/CFA and simultaneously treated with the compound for 11 days on a b.i.d regimen. Inguinal Lymph node and spleen were harvested, cultures were set up for lymphocytes and splenocytes and stimulated with external antigen (MOG) for 72 hours. Supernatants from these cultures were analyzed for TH1, Th2 and Th17 cytokines using a Cytometric Bead Array assay.

[7] = system: IL-6 and IL-17 and MCP-1 cytokines; assay: In vivo efficacy in mouse endotoxemia model; details: C57/Bl6 mice, 75 mg/kg oral, LPS 0.5 mg/kg i.p.
Experimental: Sub lethal doses of Endotoxin (E. Coli bacterial lipopolysaccharide) are administered to animals to produce a generalized inflammatory response which is monitored by increases in secreted cytokines. Compounds are administered to C57/Bl6 mice at T=4 hours orally at 75 mg/kg dose to evaluate inhibition in IL-6 and IL-17 and MCP-1 cytokines post 3-h challenge with lipopolysaccharide (LPS) at T=0 hours at 0.5 mg/kg dose intraperitoneally.

Row | Compound | EC170 [1] | IC50 [2] | In vivo activity [3] | In vivo activity [4] | In vivo activity [5] | In vivo activity [6] | In vivo activity [7]
1 | Cc1nc2c(-c3c(C)nn(C)c3C)cc(-c3c(C)noc3C)cc2[nH]1 [Example Compound 49, 3,5-dimethyl-4-(2-methyl-4-(1,3,5-trimethyl-1H-pyrazol-4-yl)-1H-benzo[d]imidazol-6-yl)isoxazole] | ≤ 0.3 µM | ≤ 300 nM | – | – | – | – | –
2 | Cc1nc2c(-c3cccnc3C)cc(-c3c(C)noc3C)cc2[nH]1 [Example Compound 41, 3,5-dimethyl-4-(2-methyl-4-(2-methylpyridin-3-yl)-1H-benzo[d]imidazol-6-yl)isoxazole] | ≤ 0.3 µM | ≤ 300 nM | Active | Active | – | – | –
3 | Cc1nc2c(-c3c(C)noc3C)cc(-c3c(C)noc3C)cc2[nH]1 [Example Compound 6, 4,4′-(2-methyl-1H-benzo[d]imidazole-4,6-diyl)bis(3,5-dimethylisoxazole)] | – | 300 to 3000 nM | Active | – | Active | Active | –
4 | Cc1noc(C)c1-c1cc(-c2c(C)noc2C)c2nc[nH]c2c1 [Example Compound 1, 4,4′-(1H-benzo[d]imidazole-4,6-diyl)bis(3,5-dimethylisoxazole)] | 0.3 to 3 µM | ≤ 300 nM | Active | Active | Active | Active | Active
